The test system of test [1] is RAW264.7. Nature of the test: Antiinflammatory activity against mouse RAW264.7 cells assessed as inhibition of LPS-induced NO production preincubated for 3 hrs followed by LPS stimulation and measured after 24 hrs by Griess reagent based assay. In kind it is functional, cell-based. (The Griess reaction detects nitrite, a stable product of nitric oxide.)
The subject of test [2] is RAW264.7. Nature of the test: Antiinflammatory activity against LPS-induced mouse RAW264.7 cells assessed as increase in intrinsic nitric oxide level at 0.5 ug/ml measured after 3 hrs by Griess reagent based assay. In kind it is functional, cell-based. Conditions: dose 0.5 µg/ml.
In test [3] the test system is RAW264.7. Briefly: Antiinflammatory activity against mouse RAW264.7 cells assessed as inhibition of LPS-induced ROS generation at 0.25 to 2 uM preincubated for 3 hrs followed by LPS stimulation and measured after 12 hrs by DCFH-DA probe based flow cytometry. As to conditions: dose 0.25-2 µM, time 15.0 hrs. The test is classed as functional, cell-based. In general terms: Flow cytometry measures light scatter and fluorescence of single cells or particles in a stream.

Test [4] has as its system RAW264.7. Nature of the test: Antiinflammatory activity against LPS-induced mouse RAW264.7 cells assessed as increase in Nrf2 expression preincubated for 3 hrs followed by LPS stimulation and measured after 24 hrs by Western blot analysis. In kind it is functional, cell-based. As to conditions: dose 0.25-2 µM, time 27.0 hrs, DDE = dose-dependent effect. (In general: In western blotting, separated proteins are transferred to a membrane and probed.)

Test [5] deals with RAW264.7. Briefly: Antiinflammatory activity against LPS-induced mouse RAW264.7 cells assessed as increase in HO-1 expression preincubated for 3 hrs followed by LPS stimulation and measured after 24 hrs by Western blot analysis. In kind it is functional, cell-based. Conditions: dose 0.25-2 µM, time 27.0 hrs, DDE = dose-dependent effect.
In test [6] the test system is RAW264.7. Briefly: Antiinflammatory activity against LPS-induced mouse RAW264.7 cells assessed as decrease in Keap1 expression preincubated for 3 hrs followed by LPS stimulation and measured after 24 hrs by Western blot analysis. The test is classed as functional, cell-based. As to conditions: dose 0.25-2 µM, time 27.0 hrs, DDE = dose-dependent effect.
The target in test [7] is T1, Nuclear factor erythroid 2-related factor 2 (Mus musculus) (UniProt Q60795).
T1 sequence (whole entry): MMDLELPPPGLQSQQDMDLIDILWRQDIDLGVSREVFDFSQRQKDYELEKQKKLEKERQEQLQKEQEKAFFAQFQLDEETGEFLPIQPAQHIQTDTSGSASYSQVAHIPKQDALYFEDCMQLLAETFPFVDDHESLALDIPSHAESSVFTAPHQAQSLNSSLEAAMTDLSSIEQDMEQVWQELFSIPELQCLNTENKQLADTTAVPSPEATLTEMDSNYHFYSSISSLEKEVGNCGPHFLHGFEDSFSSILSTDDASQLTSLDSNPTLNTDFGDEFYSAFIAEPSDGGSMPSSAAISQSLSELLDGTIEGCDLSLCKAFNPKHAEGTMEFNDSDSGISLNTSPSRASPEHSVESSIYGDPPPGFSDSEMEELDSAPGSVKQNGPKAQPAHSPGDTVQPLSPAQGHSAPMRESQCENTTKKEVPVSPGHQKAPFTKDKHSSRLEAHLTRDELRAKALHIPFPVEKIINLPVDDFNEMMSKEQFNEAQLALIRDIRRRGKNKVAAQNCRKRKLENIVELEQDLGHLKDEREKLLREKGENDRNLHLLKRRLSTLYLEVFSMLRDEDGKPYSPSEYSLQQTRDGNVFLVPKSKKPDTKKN
Briefly: Induction of LPS-induced Nrf2 nuclear translocation in mouse RAW264.7 cells at 2 uM preincubated for 3 hrs followed by LPS stimulation and measured after 12 hrs by immunofluorescence staining based confocal laser scanning microscopy. The test is classed as cell-based. As to conditions: time 15.0 hrs.

Activity calls are given as the source filed them. No cut-off for these calls is given here.

Turning to `C=C1CC[C@H]2[C@@H](/C=C(\C)C(=O)[C@@]3(O)C[C@H](C)[C@H](O)[C@@H]3[C@H]1OC(=O)CCC(=O)OCCOCCOc1no[n+]([O-])c1S(=O)(=O)c1ccccc1)C2(C)C`, the IC50 (commonly the concentration needed to halve the response being measured) in test [1] was 380 nM. The outcome in test [2] and in test [7] was Active. Further, the inhibition result in test [3] was “Active”. In addition, the Activity entry in test [4], in test [5] and in test [6] was “Dde” in each case.

Values taken from ChEMBL document CHEMBL5154706, “Synthesis of lathyrane diterpenoid nitrogen-containing heterocyclic derivatives and evaluation of their anti-inflammatory activities” (Bioorg Med Chem, 2022).
